Results as given in paper PMC5034043 (The Journal of Biological Chemistry, 2016).
Read-outs that look alike come from different tables or passages of the source.

System: T1, synaptosomal proteome
T1 construct: from tissue; host or cells: brain synaptosomes of male C57/B6 mice
Type: binding, mouse
Procedure: Synaptosomes were resuspended to 1 mg of protein/ml in HEPES buffer medium (in mM: 140 NaCl, 5 KCl, 5 NaHCO3, 1.2 NaH2PO4, 1 MgCl2, 10 glucose, and 10 HEPES (pH 7.4)). […] The samples were allowed to equilibrate for 5 min before being transferred to a parafilm-sealed 1-mm path length quartz cuvette. The sample was then irradiated for 20 min at a peak bandwidth of 350 nm (Rayonet RPR-3500 lamp) ∼6 cm from the light source. Non-irradiated samples were left in the dark at ambient temperature (22–25 °C) for 20 min. All remaining procedures were conducted with restricted light exposure.
To 750 μg of photolabeled or control synaptosome samples, 40 μl of 10% SDS and 2 μl of 5 mM DTT in water were added. Samples were then vortexed, heated for 10 min at 65 °C, and then briefly cooled. Final concentrations of 150 μM azide-biotin (Click Chemistry Tools), 2 mM tris(3-hydroxypropyltriazolylmethyl)amine (Sigma), 1 mM ascorbic acid (Sigma), and 1 mM CuSO4·5H2O (Sigma) were added to each sample and vortexed vigorously. The samples were left in the dark at ambient temperature (22–25 °C) for 1 h with mild agitation. Directly to each sample 4× volume chilled methanol, 1.5× chilled chloroform, and 3× chilled double distilled H2O were added. Samples were vortexed vigorously and centrifuged at 1,400 × g for 30 min at 4 °C. Both liquid layers were carefully removed, and the protein pellet was washed with 2 ml of 1:1 (v/v) chilled methanol/chloroform. Samples were centrifuged at 3,500 × g for 30 min at 4 °C. Protein pellets were briefly air-dried before further processing.
750 μg of biotin-conjugated protein sample was resuspended in 500 μl of 25 mM NH4HCO3 and 6 M urea in water. Next, 150 μl of 5% Triton X-100 in water, 50 μl of 10% SDS in water, and 1.5 μl of 0.5 M DTT were added. The samples were heated for 15 min at 65 °C. After briefly cooling, 14 μl of 0.5 M iodoacetamide in water was added, and the sample was left in the dark for 45 min. […] The supernatant was diluted to 4 ml with PBS, and 2 ml of PBS containing 100 μl of 50% streptavidin-agarose resin (Thermo Scientific) was added. Biotinylated proteins within the sample were captured over resin overnight at 4 °C with mild agitation. The resin was first washed with 6 ml of 1% SDS in PBS, and then 7 ml of 0.1 M urea in PBS followed by 10 ml of PBS. The resin underwent a final wash with 0.9 ml of 50 mM Tris-HCl and 1 mM CaCl2 in water (pH 8.0) and then resuspended in 200 μl of 50 mM Tris-HCl, 1 mM CaCl2 in water (pH 8.0), and 2 μg of porcine sequencing grade trypsin (Promega). Samples were digested overnight at 37 °C. Samples were then centrifuged at 2,000 × g for 4 min, and digest supernatant was decanted. Beads were washed in 100 μl of PBS centrifuged at 5,200 × g for 5 min, and the wash was combined with the digest supernatant. To the combined sample, trifluoroacetic acid (TFA) was added to 0.4% (v/v) or until pH <2. The sample was desalted with Oasis C18 10-mg columns (Waters) as described previously ([66]). The eluted sample was dried by speed vac and resuspended in 0.1 M HEPES buffer (pH 8.5). […] Appropriate corresponding TMTsixplex^TM-labeled samples were pooled and dried by speed vac. The combined samples were resuspended in 0.5% acetic acid in water and pH-corrected with acetic acid until pH was <2. 40 μg of protein was desalted with C18 stage tips prepared in-house and dried by speed vac.
Samples were resuspended in 10 mM KH2PO4 (pH 2.6), 30% acetonitrile (v/v) in water, and fractionated by off-line strong cation exchange chromatography prior to mass spectrometry (MS) analysis similar to as reported previously ([66]). The full synaptosome proteome control was prepared similarly without TMTsixplex^TM labeling.
All TMT samples were analyzed with three-stage mass spectrometry (MS3) TMTsixplex^TM quantification workflow as described previously ([34]).

[1] = protein A2AGI3 Neuroligin-3 (Nlgn3)
[2] = protein A2AWI7 Endophilin-B2 (Sh3glb2)
[3] = protein D3Z5T2 Armadillo repeat-containing protein 10 (Armc10)
[4] = protein E9Q3V6 Septin-2 (Sept2)
[5] = protein F7C846 Metaxin-1 (Mtx1)
[6] = protein F8WGD9 1-acyl-sn-glycerol-3-phosphate acyltransferase epsilon (Agpat5)
[7] = protein G3UYZ1 Immunoglobulin superfamily member 8 (Igsf8)
[8] = protein G5E829 Plasma membrane calcium-transporting ATPase 1 (Atp2b1)
[9] = protein H3BL44 Calcium-transporting ATPase (Atp2c1)
[10] = protein O09111 NADH dehydrogenase [ubiquinone] 1 beta subcomplex subunit 11, mitochondrial (Ndufb11)
[11] = protein O35114 Lysosome membrane protein 2 (Scarb2)
[12] = protein O35526 Syntaxin-1A (Stx1a)
[13] = protein O35874 Neutral amino acid transporter A (Slc1a4)
[14] = protein O35963 Ras-related protein Rab-33B (Rab33b)
[15] = protein O55022 Membrane-associated progesterone receptor component 1 (Pgrmc1)

## CC(C)c1cccc(C(C)C)c1O [propofol, 2,6-diisopropylphenol, reference compound]
D3Z2J6 Tmx2
  % propofol protection: 70%
E9PUL5 Prrt2
  % propofol protection: 72%
  Log2( Mean 'UV/ UV+propofol'): 1.75
P07724 Alb
  % propofol protection: 75%
  Log2( Mean 'UV/ UV+propofol'): 1.84
P12787 Cox5a
  % propofol protection: 76%
P16332 Mut
  % propofol protection: 72%
  Log2( Mean 'UV/ UV+propofol'): 1.79
P23242 Gja1
  Log2( Mean 'UV/ UV+propofol'): 1.15
P35279 Rab6a
  Log2( Mean 'UV/ UV+propofol'): 1.22
P51150 Rab7a
  % propofol protection: 73%
  Log2( Mean 'UV/ UV+propofol'): 1.72
P54071 Idh2
  % propofol protection: 71%
  Log2( Mean 'UV/ UV+propofol'): 1.75
P61620 Sec61a1
  Log2( Mean 'UV/ UV+propofol'): 1.22
P62812 Gabra1
  % propofol protection: 70%
P63037 Dnaja1
  Log2( Mean 'UV/ UV+propofol'): 1.24
P63044 Vamp2
  % propofol protection: 71%
P63213 Gng2
  % propofol protection: 75%
  Log2( Mean 'UV/ UV+propofol'): 1.98
P97445 Cacna1a
  % propofol protection: 70%
Q5SW88 Rab1
  % propofol protection: 73%
  Log2( Mean 'UV/ UV+propofol'): 1.71
Q8BLF1 Nceh1
  % propofol protection: 71%
  Log2( Mean 'UV/ UV+propofol'): 1.72
Q8BXV2 Bri3bp
  % propofol protection: 75%
  Log2( Mean 'UV/ UV+propofol'): 1.93
Q8C3X2 Ccdc90b
  % propofol protection: 75%
  Log2( Mean 'UV/ UV+propofol'): 1.94
Q8K1Z0 Coq9
  % propofol protection: 73%
  Log2( Mean 'UV/ UV+propofol'): 1.79
Q8K221 Arfip2
  % propofol protection: 70%
Q8R5J9 Arl6ip5
  % propofol protection: 75%
  Log2( Mean 'UV/ UV+propofol'): 1.93
Q9CQQ7 Atp5f1
  % propofol protection: 70%
Q9CQS4 Slc25a46
  % propofol protection: 76%
Q9CXJ4 Abcb8
  Log2( Mean 'UV/ UV+propofol'): 1.18
Q9CZS1 Aldh1b1
  % propofol protection: 75%
  Log2( Mean 'UV/ UV+propofol'): 1.96
Q9D2P8 Mobp
  % propofol protection: 76%
Q9D5T0 Atad1
  Log2( Mean 'UV/ UV+propofol'): 1.22
Q9D6D0 Slc25a27
  % propofol protection: 75%
Q9D6K8 Fundc2
  % propofol protection: 71%
  Log2( Mean 'UV/ UV+propofol'): 1.61
Q9DAS9 Gng12
  % propofol protection: 76%
Q9DC70 Ndufs7
  % propofol protection: 70%
Q9EP69 Sacm1l
  Log2( Mean 'UV/ UV+propofol'): 1.23
Q9WV54 Asah1
  % propofol protection: 72%
  Log2( Mean 'UV/ UV+propofol'): 1.72
Q9Z2I0 Letm1
  Log2( Mean 'UV/ UV+propofol'): 1.22
Q99J08 Sec14l2
  % propofol protection: 72%
  Log2( Mean 'UV/ UV+propofol'): 1.67
Q99JY8 Ppap2b
  Log2( Mean 'UV/ UV+propofol'): 1.22
Q00915 Rbp1
  % propofol protection: 75%
  Log2( Mean 'UV/ UV+propofol'): 1.96
Q64133 Maoa
  % propofol protection: 73%
  Log2( Mean 'UV/ UV+propofol'): 1.78
[1]
  % propofol protection: 58%
  Log2( Mean 'UV/ UV+propofol'): 1.22
[2]
  % propofol protection: 56%
  Log2( Mean 'UV/ UV+propofol'): 1.04
[3]
  % propofol protection: 55%
  Log2( Mean 'UV/ UV+propofol'): 1.05
[4]
  % propofol protection: 54%
  Log2( Mean 'UV/ UV+propofol'): 1.08
[5]
  % propofol protection: 55%
  Log2( Mean 'UV/ UV+propofol'): 1.11
[6]
  % propofol protection: 57%
  Log2( Mean 'UV/ UV+propofol'): 1.12
[7]
  % propofol protection: 52%
  Log2( Mean 'UV/ UV+propofol'): 0.97
[8]
  % propofol protection: 55%
  Log2( Mean 'UV/ UV+propofol'): 1.01
[9]
  % propofol protection: 51%
  Log2( Mean 'UV/ UV+propofol'): 0.88
[10]
  % propofol protection: 56%
  Log2( Mean 'UV/ UV+propofol'): 1.15
[11]
  % propofol protection: 53%
  Log2( Mean 'UV/ UV+propofol'): 1.00
[12]
  % propofol protection: 57%
  Log2( Mean 'UV/ UV+propofol'): 1.15
[13]
  % propofol protection: 53%
  Log2( Mean 'UV/ UV+propofol'): 1.03
[14]
  % propofol protection: 55%
  Log2( Mean 'UV/ UV+propofol'): 1.06
[15]
  % propofol protection: 51%
  Log2( Mean 'UV/ UV+propofol'): 1.00
